25 compounds from US9540400B2, “Compounds as diacylglycerol acyltransferase inhibitors” (GlaxoSmithKline Intellectual Property (No. 2) Limited, priority 2011, dated 2017) can be followed below.

Test [1] concerns the target T1, Human DGAT1 (Homo sapiens, UniProt O75907).
T1 construct: made in house; host or cells: Sf9 insect cells (baculovirus); microsomes
T1 sequence (O75907 1-488): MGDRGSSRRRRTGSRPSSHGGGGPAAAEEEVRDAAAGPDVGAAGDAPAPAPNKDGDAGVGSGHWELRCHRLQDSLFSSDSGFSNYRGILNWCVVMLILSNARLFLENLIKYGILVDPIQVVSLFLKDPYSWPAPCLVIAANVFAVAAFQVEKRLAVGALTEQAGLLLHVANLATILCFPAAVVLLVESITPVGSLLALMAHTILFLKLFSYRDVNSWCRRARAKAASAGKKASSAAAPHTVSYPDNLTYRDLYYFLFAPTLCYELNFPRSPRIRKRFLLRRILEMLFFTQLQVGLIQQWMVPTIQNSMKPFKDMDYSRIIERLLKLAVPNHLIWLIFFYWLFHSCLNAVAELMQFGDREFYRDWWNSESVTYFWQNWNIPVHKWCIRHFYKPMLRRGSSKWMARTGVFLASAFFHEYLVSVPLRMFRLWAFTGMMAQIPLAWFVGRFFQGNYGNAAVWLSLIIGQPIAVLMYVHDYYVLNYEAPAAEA
The experiment in a line: hDGAT1 lipid extraction (LE) assay, inhibition of triacylglycerol product formation. It counts as biochemical. Conditions: human DGAT1 microsomes from Sf9 cells; radiolabelled tridecanoylglycerol extraction. As to the method:
(§1) Human DGAT1 was expressed in Sf9 insect cells using a baculovirus expression system. Microsomes were prepared and used as enzyme for in vitro inhibition testing in either of two formats measuring production of coenzyme A or tridecanoylglycerol product, respectively. All steps were performed at 21-23° C. All data for DGAT1 inhibition by test compounds were collected under conditions where product formation was linear with reaction time.
For inhibition of triacylglycerol product formation, 11 uL reactions were run in white Polyplate-384 (PerkinElmer6007300) starting with a 30 minute pre-reaction incubation of 5 uL of 2.2× enzyme and 1 uL of 100% DMSO containing test compound or control compound, {4-[4-(4-amino-7,7-dimethyl-7H-pyrimido[4,5-b][1,4]oxazin-6-yl)phenyl]cyclohexyl}acetic acid. Some assays were performed with inclusion of didecanoylglycerol in the pre-reaction incubation of test compounds and enzyme. Reactions were initiated after 30 minute pre-reaction incubation via addition of 5 uL of 2.2× substrate. Final reaction conditions consisted of 50 mM HEPES pH 7.5, 2 mM MgCl2, 1 mM CHAPS, 25 uM didecanoylglycerol, 0.5 uM decanoyl-CoA, 0.3 nCi/uL [^14C]-decanoyl-CoA or 0.5 nCi/uL [^3H]-decanoyl-CoA, 0.05-4 ug/mL microsomal protein, and 1% DMSO. Following 60 minute reaction incubation, reactions were stopped with 40 uL of 45% isopropanol and 50 mM sodium carbonate in water and mixed. Extraction of tridecanoylglycerol product was accomplished via addition of 30 uL Microscint-E (Perkin Elmer) and 2 hours of incubation (sealed). Plates were read on a Microbeta Microplate reader. Inhibition was normalized to controls containing DMSO or 10 uM {4-[4-(4-amino-7,7-dimethyl-7H-pyrimido[4,5-b][1,4]oxazin-6-yl)phenyl]cyclohexyl}acetic acid. IC50s were fitted using GraphPad Prism to a sigmoidal dose response.

The target in test [2] is T1, Human DGAT1. As to the kind of experiment: hDGAT1 fluorescence (CPM) assay, inhibition of CoA product formation. Conditions: human DGAT1 microsomes from Sf9 cells. It counts as biochemical. How it is done:
as §1
For inhibition of CoA product formation, test compounds were prepared in 100% DMSO, diluted 100-fold into assay buffer, and 10 uL added to 96-well half-area plates (Greiner 675076). An equal volume (10 uL) of 3× enzyme in buffer was added and the components incubated for 30 minutes pre-reaction incubation to allow enzyme and test compounds to attain binding equilibrium. […] Some assays were performed with inclusion of didecanoylglycerol in the pre-reaction incubation of test compound and enzyme. DGAT reactions (30 uL) were initiated upon addition of 10 uL of 3× substrate solution. Final reaction conditions consisted of 20 mM HEPES pH 7.5, 2 mM MgCl2, 1 mM CHAPS, 50 uM didecanoylglycerol, 3 uM decanoyl-CoA, 1 ug/mL microsomal protein, and 1% DMSO. Following a 60 minute reaction incubation, reactions were stopped and CoA product derivatized with 30 uL of buffer containing 10 uM {4-[4-(4-amino-7,7-dimethyl-7H-pyrimido[4,5-b][1,4]oxazin-6-yl)phenyl]cyclohexyl}acetic acid and 50 uM 7-diethylamino-3-(4′-maleimidylphenyl)-4-methylcoumarin (CPM). Fluorescence was read using Envision reader at Ex 405 nm/Em 480 nm about 30 minutes after addition of final solution. Inhibition was normalized to controls containing DMSO or 10 uM {4-[4-(4-amino-7,7-dimethyl-7H-pyrimido[4,5-b][1,4]oxazin-6-yl)phenyl]cyclohexyl}acetic acid. IC50s were fitted using GraphPad Prism to a sigmoidal dose response.

Broadly, the IC50 is the midpoint of a concentration-inhibition curve. “4-amino-6-(6-fluoro-1-phenyl-1H-indol-5-yl)-5H,6H,7H,8H-pyrimido[5,4-f][1,4]oxazepin-5-one [Example 96]” showed an IC50 in test [1] of 7.3 nM.

Compound `Nc1ncnc2c1C(=O)N(c1ccc3c(c1)CCC(=O)N3CC(=O)O)CCO2` [Example 3, 2-(6-{4-amino-5-oxo-5H,6H,7H,8H-pyrimido[5,4-f][1,4]oxazepin-6-yl}-2-oxo-1,2,3,4-tetrahydroquinolin-1-yl)acetic acid] gave an IC50 in test [2] of 372 nM.

Consider `CN1CCc2cc(N3CCOc4ncnc(N)c4C3=O)ccc2C1=O` [Example 6, 6-{4-amino-5-oxo-5H,6H,7H,8H-pyrimido[5,4-f][1,4]oxazepin-6-yl}-2-methyl-1,2,3,4-tetrahydroisoquinolin-1-one], for which, in test [2], the IC50 turned out to be 85.8 nM.

Compound `C=CCn1c2ccc(N3CCOc4ncnc(N)c4C3=O)cc2c(=O)n1Cc1ccccc1` [Example 10, 6-(1-Allyl-2-benzyl-3-oxo-2,3-dihydro-1H-indazol-5-yl)-4-amino-7,8-dihydropyrimido[5,4-f][1,4]oxazepin-5(6H)-one] returned an IC50 in test [2] of 42 nM.

On to `CCCn1[nH]c(=O)c2cc(N3CCOc4ncnc(N)c4C3=O)ccc21` [Example 11, 4-Amino-6-(3-oxo-1-propyl-2,3-dihydro-1H-indazol-5-yl)-7,8-dihydropyrimido[5,4-f][1,4]oxazepin-5(6H)-one], for which, in test [2], it took 6.3 nM to reach half-maximal inhibition (IC50).

Compound `CCCn1ccc2cc(N3CCOc4ncnc(N)c4C3=O)ccc21` [Example 12, 4-Amino-6-(1-propyl-1H-indol-5-yl)-7,8-dihydropyrimido[5,4-f][1,4]oxazepin-5(6H)-one] came in with an IC50 in test [2] of 16.3 nM.

Consider `Nc1ncnc2c1C(=O)N(c1cnc3c(ccn3CC(F)F)c1)CCO2` [Example 33, 4-Amino-6-(1-(2,2-difluoroethyl)-1H-pyrrolo[2,3-b]pyridin-5-yl)-7,8-dihydropyrimido[5,4-f][1,4]oxazepin-5(6H)-one], for which, in test [1], the IC50 was found to be 23.3 nM.

The compound `Nc1ncnc2c1C(=O)N(c1cnc3c(ccn3C3CC3)c1)CCO2` [Example 34, 4-Amino-6-(1-cyclopropyl-1H-pyrrolo[2,3-b]pyridin-5-yl)-7,8-dihydropyrimido[5,4-f][1,4]oxazepin-5(6H)-one] yielded an IC50 in test [2] of 25.7 nM.

Take `Nc1ncnc2c1C(=O)N(c1cnc3c(ccn3CCO)c1)CCO2` [Example 59, 4-amino-6-[1-(2-hydroxyethyl)-1H-pyrrolo[2,3-b]pyridin-5-yl]-5H,6H,7H,8H-pyrimido[5,4-f][1,4]oxazepin-5-one]: the IC50 in test [2] was found to be 49.5 nM.

For `CS(=O)(=O)n1ccc2cc(N3CCOc4ncnc(N)c4C3=O)ccc21` [Example 60, 4-amino-6-(1-methanesulfonyl-1H-indol-5-yl)-5H,6H,7H,8H-pyrimido[5,4-f][1,4]oxazepin-5-one], in test [1], the IC50 is 14.8 nM.

`CCCn1cc(C(=O)C(F)(F)F)c2cc(N3CCOc4ncnc(N)c4C3=O)ccc21` [Example 63, 4-Amino-6-(1-propyl-3-(2,2,2-trifluoroacetyl)-1H-indol-5-yl)-7,8-dihydropyrimido[5,4-f][1,4]oxazepin-5(6H)-one] had an IC50 in test [1] of 2.3 nM.

Compound `CCCn1cc(C(C)(OC)C(F)(F)F)c2cc(N3CCOc4ncnc(N)c4C3=O)ccc21` (stereo not shown) [Example 64, 4-amino-6-[1-propyl-3-(1,1,1-trifluoro-2-methoxypropan-2-yl)-1H-indol-5-yl]-5H,6H,7H,8H-pyrimido[5,4-f][1,4]oxazepin-5-one] showed an IC50 in test [1] of 8.8 nM.

As to `Nc1ncnc2c1C(=O)N(c1ccc3c(ccn3-c3ccccc3)c1)CCO2` [Example 65, 4-Amino-6-(1-phenyl-1H-indol-5-yl)-7,8-dihydropyrimido[5,4-f][1,4]oxazepin-5(6H)-one], the IC50 in test [1] was determined as 3.9 nM.

`Nc1ncnc2c1C(=O)N(c1cnc3c(ccn3-c3ccc(C(F)(F)F)cc3)c1)CCO2` [Example 66, 4-Amino-6-(1-(4-(trifluoromethyl)phenyl)-1H-pyrrolo[2,3-b]pyridin-5-yl)-7,8-dihydropyrimido[5,4-f][1,4]oxazepin-5(6H)-one] registered an IC50 in test [2] of 42.5 nM.

Turning to `Nc1ncnc2c1C(=O)N(c1cnc3c(ccn3-c3cccc(Cl)c3)c1)CCO2` [Example 68, 4-amino-6-[1-(3-chlorophenyl)-1H-pyrrolo[2,3-b]pyridin-5-yl]-5H,6H,7H,8H-pyrimido[5,4-f][1,4]oxazepin-5-one], in test [2], the IC50 is 2.8 nM.

Compound `Nc1ncnc2c1C(=O)N(c1cnc3c(ccn3-c3ccccc3)c1)CCO2` [Example 72, 4-amino-6-{1-phenyl-1H-pyrrolo[2,3-b]pyridin-5-yl}-5H,6H,7H,8H-pyrimido[5,4-f][1,4]oxazepin-5-one] returned an IC50 in test [1] of 9.3 nM.

Regarding `Nc1ncnc2c1C(=O)N(c1ccc3c(ccn3-c3ccc(F)c(F)c3)c1)CCO2` [Example 74, 4-amino-6-[1-(3,4-difluorophenyl)-1H-indol-5-yl]-5H,6H,7H,8H-pyrimido[5,4-f][1,4]oxazepin-5-one], the IC50 in test [1] came to 4.5 nM.

`Nc1ncnc2c1C(=O)N(c1ccc3c(ccn3-c3ccccc3F)c1)CCO2` [Example 76, 4-amino-6-[1-(2-fluorophenyl)-1H-indol-5-yl]-5H,6H,7H,8H-pyrimido[5,4-f][1,4]oxazepin-5-one] displayed an IC50 in test [2] of 2.5 nM.

The compound `Nc1ncnc2c1C(=O)N(c1ccc3c(ccn3-c3ccc(C(F)(F)F)cc3)c1)CCO2` [Example 78, 4-amino-6-{1-[4-(trifluoromethyl)phenyl]-1H-indol-5-yl}-5H,6H,7H,8H-pyrimido[5,4-f][1,4]oxazepin-5-one] returned an IC50 in test [2] of 7.3 nM.

Turning to `Nc1ncnc2c1C(=O)N(c1ccc3c(ccn3-c3cccc(C(F)(F)F)c3)c1)CCO2` [Example 80, 4-amino-6-{1-[3-(trifluoromethyl)phenyl]-1H-indol-5-yl}-5H,6H,7H,8H-pyrimido[5,4-f][1,4]oxazepin-5-one], the IC50 in test [1] came out at 3.6 nM.

For the compound `Nc1ncnc2c1C(=O)N(c1ccc3c(ccn3-c3nccs3)c1)CCO2` [Example 82, 4-Amino-6-(1-(thiazol-2-yl)-1H-indol-5-yl)-7,8-dihydropyrimido[5,4-f][1,4]oxazepin-5(6H)-one], the IC50 in test [2] is 20.5 nM.

The compound `Nc1ncnc2c1C(=O)N(c1ccc3c(ccn3-c3ccc(C(F)(F)F)nc3)c1)CCO2` [Example 83, 4-Amino-6-(1-(6-(trifluoromethyl)pyridin-3-yl)-1H-indol-5-yl)-7,8-dihydropyrimido[5,4-f][1,4]oxazepin-5(6H)-one] gave an IC50 in test [2] of 40 nM.

As for `Nc1ncnc2c1C(=O)N(c1ccc3c(ccn3-c3cnccn3)c1)CCO2` [Example 87, 4-amino-6-[1-(pyrazin-2-yl)-1H-indol-5-yl]-5H,6H,7H,8H-pyrimido[5,4-f][1,4]oxazepin-5-one], in test [2], the midpoint of inhibition, the IC50, lay at 55.1 nM.

For the compound `CC(C)c1cn(-c2ccccc2)c2ccc(N3CCOc4ncnc(N)c4C3=O)cc12` [Example 94, 4-Amino-6-(3-isopropyl-1-phenyl-1H-indol-5-yl)-7,8-dihydropyrimido[5,4-f][1,4]oxazepin-5(6H)-one], the midpoint of inhibition in test [2], the IC50, lay at 873 nM.

With `CCCn1c(-c2ccccc2)cc2cc(N3CCOc4ncnc(N)c4C3=O)ccc21` [Example 95, 4-Amino-6-(2-phenyl-1-propyl-1H-indol-5-yl)-7,8-dihydropyrimido[5,4-f][1,4]oxazepin-5(6H)-one], the IC50 in test [2] is 10.1 nM.
